The data set in a line: activity coefficient (dimensionless); of the first substance listed, at infinite dilution; xn = mol fraction of the nth substance listed. The following applies: 101 kPa, Liquid, Chromatography, x1 = 0.

Numbers after ± are expanded uncertainties.

Consider `CC(C)CO` [2-methyl-1-propanol] + CCCCCCCC[N+]1(C)CCCC1.O=S(=O)([N-]S(=O)(=O)C(F)(F)F)C(F)(F)F, for which the activity coefficient reads like this: (323 K) 1.59 ± 0.17; (333 K) 1.44 ± 0.15; (343.1 K) 1.22 ± 0.13.

`C1COCCO1` [1,4-dioxane] + CCCCCC[N+]1(C)CCCC1.O=S(=O)([N-]S(=O)(=O)C(F)(F)F)C(F)(F)F: the activity coefficient by setting is: (322.9 K) 0.58 ± 0.06; (333 K) 0.42 ± 0.05; (343.1 K) 0.44 ± 0.05.

As for `Cc1ccccc1C` [1,2-dimethylbenzene] + CCCCCCCC[N+]1(C)CCCC1.O=S(=O)([N-]S(=O)(=O)C(F)(F)F)C(F)(F)F, the activity coefficient stood at 0.92 ± 0.09 (323 K), 0.87 ± 0.09 (333 K) and 0.97 ± 0.1 (343.1 K).

As for `ClCCl` [dichloromethane] + CCCCCCCC[N+]1(C)CCCC1.O=S(=O)([N-]S(=O)(=O)C(F)(F)F)C(F)(F)F, the activity coefficient (323 K) stood at 0.26 ± 0.04, the activity coefficient (333 K) came to 0.27 ± 0.04 and the activity coefficient (343.1 K) was found to be 0.28 ± 0.04.

As to `CCC(C)=O` [butanone] + CCCCCC[N+]1(C)CCCC1.O=S(=O)([N-]S(=O)(=O)C(F)(F)F)C(F)(F)F, the activity coefficient came out at 0.42 ± 0.05 (322.9 K), 0.42 ± 0.05 (333 K) and 0.39 ± 0.05 (343.1 K).

As for `Cc1cccc(C)c1` [1,3-dimethylbenzene] + CCCCCC[N+]1(C)CCCC1.O=S(=O)([N-]S(=O)(=O)C(F)(F)F)C(F)(F)F, the activity coefficient (322.9 K) was 1.28 ± 0.13, the activity coefficient (333 K) is 1.39 ± 0.14 and the activity coefficient (343.1 K) is 1.42 ± 0.15.

As to `ClC(Cl)Cl` [trichloromethane] + CCCCCCCCCC[N+]1(C)CCCC1.O=S(=O)([N-]S(=O)(=O)C(F)(F)F)C(F)(F)F, the activity coefficient is 0.39 ± 0.05 (322.6 K), 0.39 ± 0.05 (332.5 K) and 0.41 ± 0.05 (342.8 K).

As to `Cc1ccc(C)cc1` [1,4-dimethylbenzene] + CCCCCCCCCC[N+]1(C)CCCC1.O=S(=O)([N-]S(=O)(=O)C(F)(F)F)C(F)(F)F, the activity coefficient is, setting by setting: (322.6 K) 1 ± 0.1; (332.5 K) 1.01 ± 0.1; (342.8 K) 1.03 ± 0.1.

As to `CCC(C)=O` [butanone] + CCCCCCCCCC[N+]1(C)CCCC1.O=S(=O)([N-]S(=O)(=O)C(F)(F)F)C(F)(F)F, the activity coefficient amounted to 0.39 ± 0.05 (322.6 K), 0.37 ± 0.04 (332.5 K) and 0.34 ± 0.04 (342.8 K).

Regarding `CCC(=O)CC` [pentan-3-one] + CCCCCCCCCC[N+]1(C)CCCC1.O=S(=O)([N-]S(=O)(=O)C(F)(F)F)C(F)(F)F, the activity coefficient reads like this: (322.6 K) 0.47 ± 0.05; (332.5 K) 0.48 ± 0.05; (342.8 K) 0.5 ± 0.06.

On to `C#CCCCCC` [1-heptyne] + CCCCCCCC[N+]1(C)CCCC1.O=S(=O)([N-]S(=O)(=O)C(F)(F)F)C(F)(F)F, for which the activity coefficient was determined as 1.94 ± 0.2 (323 K), 1.89 ± 0.2 (333 K) and 1.9 ± 0.2 (343.1 K).

Regarding `C1COCCO1` [1,4-dioxane] + CCCCCCCC[N+]1(C)CCCC1.O=S(=O)([N-]S(=O)(=O)C(F)(F)F)C(F)(F)F, the activity coefficient worked out at 0.32 ± 0.04 (323 K), 0.6 ± 0.06 (333 K) and 0.31 ± 0.04 (343.1 K).

Consider `CC(C)O` [propan-2-ol] + CCCCCCCC[N+]1(C)CCCC1.O=S(=O)([N-]S(=O)(=O)C(F)(F)F)C(F)(F)F, for which the activity coefficient stood at 1.4 ± 0.14 (323 K), 1.27 ± 0.13 (333 K) and 1.06 ± 0.11 (343.1 K).

Consider `CCCC(C)=O` [pentan-2-one] + CCCCCC[N+]1(C)CCCC1.O=S(=O)([N-]S(=O)(=O)C(F)(F)F)C(F)(F)F, for which the activity coefficient turned out to be 0.59 ± 0.06 (322.9 K), 0.65 ± 0.07 (333 K) and 0.66 ± 0.07 (343.1 K).

In the case of `C[N+](=O)[O-]` [nitromethane] + CCCCCCCC[N+]1(C)CCCC1.O=S(=O)([N-]S(=O)(=O)C(F)(F)F)C(F)(F)F, the activity coefficient turned out to be 0.54 ± 0.06 (323 K), 0.51 ± 0.06 (333 K) and 0.48 ± 0.05 (343.1 K).

As to `CC#N` [acetonitrile] + CCCCCCCC[N+]1(C)CCCC1.O=S(=O)([N-]S(=O)(=O)C(F)(F)F)C(F)(F)F, the activity coefficient turned out to be 0.43 ± 0.05 (323 K), 0.39 ± 0.05 (333 K) and 0.37 ± 0.04 (343.1 K).

`C[N+](=O)[O-]` [nitromethane] + CCCCCC[N+]1(C)CCCC1.O=S(=O)([N-]S(=O)(=O)C(F)(F)F)C(F)(F)F: the activity coefficient reads like this: (322.9 K) 0.57 ± 0.06; (333 K) 0.57 ± 0.06; (343.1 K) 0.56 ± 0.06.

On to `CCCO` [propan-1-ol] + CCCCCCCC[N+]1(C)CCCC1.O=S(=O)([N-]S(=O)(=O)C(F)(F)F)C(F)(F)F, for which the activity coefficient by setting is: (323 K) 1.49 ± 0.15; (333 K) 1.29 ± 0.13; (343.1 K) 1.14 ± 0.12.

`CCCCCCCCCCC` [undecane] + CCCCCCCCCC[N+]1(C)CCCC1.O=S(=O)([N-]S(=O)(=O)C(F)(F)F)C(F)(F)F: the activity coefficient by setting is: (322.6 K) 11.7 ± 1.2; (332.5 K) 11.2 ± 1.2; (342.8 K) 10.7 ± 1.1.

For the molecule `CC(C)CO` [2-methyl-1-propanol] + CCCCCC[N+]1(C)CCCC1.O=S(=O)([N-]S(=O)(=O)C(F)(F)F)C(F)(F)F, the activity coefficient worked out at 1.87 ± 0.11 (322.9 K), 2.67 ± 0.16 (333 K) and 1.65 ± 0.1 (343.1 K).

In the case of `CO` [methanol] + CCCCCCCC[N+]1(C)CCCC1.O=S(=O)([N-]S(=O)(=O)C(F)(F)F)C(F)(F)F, the activity coefficient by setting is: (323 K) 0.97 ± 0.1; (333 K) 1.09 ± 0.11; (343.1 K) 0.71 ± 0.07.

Regarding `C1CCCCC1` [cyclohexane] + CCCCCCCCCC[N+]1(C)CCCC1.O=S(=O)([N-]S(=O)(=O)C(F)(F)F)C(F)(F)F, the activity coefficient (322.6 K) amounted to 2.81 ± 0.3, the activity coefficient (332.5 K) came to 2.71 ± 0.28 and the activity coefficient (342.8 K) is 2.62 ± 0.28.

For `c1ccncc1` [pyridine] + CCCCCCCCCC[N+]1(C)CCCC1.O=S(=O)([N-]S(=O)(=O)C(F)(F)F)C(F)(F)F, the activity coefficient was 0.47 ± 0.05 (322.6 K), 0.47 ± 0.05 (332.5 K) and 0.47 ± 0.05 (342.8 K).

With `CCCCCCCCC` [nonane] + CCCCCCCCCC[N+]1(C)CCCC1.O=S(=O)([N-]S(=O)(=O)C(F)(F)F)C(F)(F)F, the activity coefficient runs as follows: (322.6 K) 8.32 ± 0.87; (332.5 K) 8.01 ± 0.84; (342.8 K) 7.65 ± 0.8.

In the case of `C#CCCCC` [1-hexyne] + CCCCCC[N+]1(C)CCCC1.O=S(=O)([N-]S(=O)(=O)C(F)(F)F)C(F)(F)F, the activity coefficient stood at 2.1 ± 0.22 (322.9 K), 2.1 ± 0.22 (333 K) and 2.09 ± 0.22 (343.1 K).

As to `CCCCCCCCCCC` [undecane] + CCCCCCCC[N+]1(C)CCCC1.O=S(=O)([N-]S(=O)(=O)C(F)(F)F)C(F)(F)F, the activity coefficient is 16.8 ± 1.8 (323 K), 15.6 ± 1.6 (333 K) and 14.6 ± 1.5 (343.1 K).

With `C=CCCCC` [hex-1-ene] + CCCCCC[N+]1(C)CCCC1.O=S(=O)([N-]S(=O)(=O)C(F)(F)F)C(F)(F)F, the activity coefficient (322.9 K) stood at 4.56 ± 0.48, the activity coefficient (333 K) is 4.63 ± 0.49 and the activity coefficient (343.1 K) is 4.44 ± 0.47.

Turning to `CO` [methanol] + CCCCCC[N+]1(C)CCCC1.O=S(=O)([N-]S(=O)(=O)C(F)(F)F)C(F)(F)F, the activity coefficient by setting is: (322.9 K) 0.94 ± 0.1; (333 K) 1.77 ± 0.18; (343.1 K) 0.95 ± 0.1.

As for `CCOCC` [diethyl ether] + CCCCCC[N+]1(C)CCCC1.O=S(=O)([N-]S(=O)(=O)C(F)(F)F)C(F)(F)F, the activity coefficient runs as follows: (322.9 K) 1.56 ± 0.16; (333 K) 1.76 ± 0.18; (343.1 K) 1.76 ± 0.18.

With `CCCCCCCCCC` [decane] + CCCCCCCCCC[N+]1(C)CCCC1.O=S(=O)([N-]S(=O)(=O)C(F)(F)F)C(F)(F)F, the activity coefficient by setting is: (322.6 K) 9.42 ± 0.99; (332.5 K) 9.05 ± 0.95; (342.8 K) 8.7 ± 0.91.

As to `CCCCCCCC` [octane] + CCCCCCCC[N+]1(C)CCCC1.O=S(=O)([N-]S(=O)(=O)C(F)(F)F)C(F)(F)F, the activity coefficient runs as follows: (323 K) 8.1 ± 0.85; (333 K) 7.8 ± 0.82; (343.1 K) 6.54 ± 0.69.

`CC(C)O` [propan-2-ol] + CCCCCCCCCC[N+]1(C)CCCC1.O=S(=O)([N-]S(=O)(=O)C(F)(F)F)C(F)(F)F: the activity coefficient by setting is: (322.6 K) 1.52 ± 0.16; (332.5 K) 1.38 ± 0.14; (342.8 K) 1.25 ± 0.13.

Take `CCC(C)CC` [3-methylpentane] + CCCCCC[N+]1(C)CCCC1.O=S(=O)([N-]S(=O)(=O)C(F)(F)F)C(F)(F)F: the activity coefficient by setting is: (322.9 K) 6.52 ± 0.69; (333 K) 6.46 ± 0.68; (343.1 K) 6.37 ± 0.67.

As for `CCC(=O)CC` [pentan-3-one] + CCCCCC[N+]1(C)CCCC1.O=S(=O)([N-]S(=O)(=O)C(F)(F)F)C(F)(F)F, the activity coefficient is 0.47 ± 0.05 (322.9 K), 0.6 ± 0.06 (333 K) and 0.62 ± 0.07 (343.1 K).

With `Cc1ccc(C)cc1` [1,4-dimethylbenzene] + CCCCCCCC[N+]1(C)CCCC1.O=S(=O)([N-]S(=O)(=O)C(F)(F)F)C(F)(F)F, the activity coefficient amounted to 1.01 ± 0.1 (323 K), 0.99 ± 0.1 (333 K) and 1.05 ± 0.11 (343.1 K).

Regarding `CC1CCCC1` [methylcyclopentane] + CCCCCC[N+]1(C)CCCC1.O=S(=O)([N-]S(=O)(=O)C(F)(F)F)C(F)(F)F, the activity coefficient by setting is: (322.9 K) 4.9 ± 0.51; (333 K) 4.52 ± 0.47; (343.1 K) 4.76 ± 0.5.

For `CCCCO` [butan-1-ol] + CCCCCC[N+]1(C)CCCC1.O=S(=O)([N-]S(=O)(=O)C(F)(F)F)C(F)(F)F, the activity coefficient was found to be 2.28 ± 0.24 (322.9 K), 2.86 ± 0.3 (333 K) and 2.04 ± 0.21 (343.1 K).
